Reference: PubChem BioAssay AID328 (DTP/NCI, 2004)
Where “and” joins values, the source holds several entries; their conditions need not be identical. Identical values can stand only once. Toxic doses and inconclusive results are not listed. The calls were made as follows: active = survival T/C of 150% or more; inactive = T/C below 125% in these data.

Experiments:
[1] = system: BDF1 mice, P388 leukemia ip; assay: NCI In Vivo Anticancer Drug Screen. Data for tumor model P388 Leukemia (intraperitoneal) in B6D2F1 (BDF1) mice; details: endpoint: mean survival time, higher = longer survival
Procedure, shortened: (§1)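 Reported as T/C, where T is the survival measurement in dosed animals and C the same measurement in vehicle controls.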

[2] = system: BDF1 mice, P388 leukemia ip, median survival T/C; assay: as above; details: endpoint: median survival time, higher = longer survival
Procedure, shortened: as §1

Measured: T/C

CC(C)(O)/C=C/C(=O)[C@](C)(O)[C@H]1[C@H](O)C[C@@]2(C)[C@@H]3CC=C4[C@@H](C=C(O)C(=O)C4(C)C)[C@]3(C)C(=O)C[C@]12C
inactive: [1]; dose: 1.5 mg/kg/injection, schedule: Q01DX010 (ip), vehicle: carboxymethylcellulose (CMC) 97 % of control | [1]; dose: 3.0 mg/kg/injection, schedule: Q01DX010 (ip), vehicle: carboxymethylcellulose (CMC) 99 % of control | [1]; dose: 6.0 mg/kg/injection, schedule: Q01DX010 (ip), vehicle: carboxymethylcellulose (CMC) 101 % of control | [2]; dose: 6.25 mg/kg/injection, schedule: Q01DX009 (ip), vehicle: Klucel (hydroxypropylcellulose) (HPC) 100 % of control | [2]; dose: 6.25 mg/kg/injection, schedule: Q04DX003 (ip), vehicle: other 90 % of control | [2]; dose: 12.5 mg/kg/injection, schedule: Q04DX003 (ip), vehicle: other 104 % of control | [2]; dose: 25.0 mg/kg/injection, schedule: Q01DX009 (ip), vehicle: Klucel (hydroxypropylcellulose) (HPC) 100 % of control | [2]; dose: 25.0 mg/kg/injection, schedule: Q04DX003 (ip), vehicle: other 104 % of control | [2]; dose: 50.0 mg/kg/injection, schedule: Q01DX009 (ip), vehicle: Klucel (hydroxypropylcellulose) (HPC) 100 % of control | [2]; dose: 50.0 mg/kg/injection, schedule: Q04DX003 (ip), vehicle: other 109 % of control

CC1(C)C(=O)C(O)=CC2C1=CCC1C2(C)C(=O)CC2(C)C(C(C)(O)C(=O)CC(O)C(C)(C)O)C(O)CC12C (stereo unspecified)
inactive: [1]; dose: 4.5 mg/kg/injection, schedule: Q01DX010 (ip), vehicle: carboxymethylcellulose (CMC) 95 % of control | [1]; dose: 9.0 mg/kg/injection, schedule: Q01DX010 (ip), vehicle: carboxymethylcellulose (CMC) 101 % of control | [1]; dose: 36.0 mg/kg/injection, schedule: Q01DX010 (ip), vehicle: carboxymethylcellulose (CMC) 103 % of control

CCN(CC)CCCC(C)NC(=O)c1cccc2c([N+](=O)[O-])cccc12 (stereo unspecified)
inactive: [1]; dose: 3.12 mg/kg/injection, schedule: Q01DX009 (ip), vehicle: water 94 % of control | [1]; dose: 12.5 mg/kg/injection, schedule: Q01DX009 (ip), vehicle: water 100 % of control | [1]; dose: 25.0 mg/kg/injection, schedule: Q01DX009 (ip), vehicle: water 110 % of control | [1]; dose: 50.0 mg/kg/injection, schedule: Q01DX009 (ip), vehicle: water 95 % of control | [1]; dose: 100.0 mg/kg/injection, schedule: Q01DX009 (ip), vehicle: water 106 % of control

COc1cc(C(=O)OC2c3ccccc3CCC2N(C)C)cc(OC)c1OC (stereo unspecified)
inactive: [2]; dose: 25.0 mg/kg/injection, schedule: Q01DX009 (ip), vehicle: saline 102 % of control | [2]; dose: 50.0 mg/kg/injection, schedule: Q01DX009 (ip), vehicle: saline 103 % of control and 107 % of control | [2]; dose: 100.0 mg/kg/injection, schedule: Q01DX009 (ip), vehicle: saline 102 % of control
